Data as given in patent US6784203B1, “Cytokine production inhibitors” (Cubist Pharmaceuticals, Inc., priority 2001, dated 2004).

What was measured:
IL-1β = IL-1β release from human monocytes (LPS-induced, ELISA); assay type: cell-based; settings: Monocyte; for IC50: human monocytes, 1 ng/ml LPS, 18 hours, read-out: IC50 LPS-induced IL-β production (monocytes)
Text: The effect of the compounds of the invention on IL-Iβ release was investigated using a known method (Bakouche, O. et al., (1992), J. Immunol: 148, 84-91). Human monocytes were purified by elutriation from Buffy coats obtained from normal healthy donors after the separation of peripheral blood mononuclear cells (PBMC) on Lymphoprep. The freshly isolated monocytes were suspended in RPMI 1640 supplemented with 5% FBS and exposed to dose ranges of the compound to be tested followed by the addition of 1 ng/ml LPS. Cells were incubated for 18 hours at 37° C. with 5% CO2 and the cell culture supernatants harvested and stored at −70° C. Effects on the production of IL-1β were determined using an ELISA.

TNF-α = TNF-α release from U937 cells (LPS-induced, DELFIA); assay type: cell-based; settings: Homo sapiens, U-937; for IC50: PMA-pretreated U937 cells, 1 ng/ml LPS, 18 hours, read-out: IC50 LPS-induced TNF production in U937 cells
Protocol: The effect of the compounds of the invention on TNF-α release was investigated using a known method (Lozanski, G. et al., (1992), J. Rheumatol; 19, 921-26).
The human histolytic lymphoma U937 cell line was obtained from a commercial source (ECACC, Salisbury, UK) and maintained in RPMI 1640 medium supplemented with 2 mM L-glutamine and 5% fetal bovine serum. The cells were pretreated with 25 ng/ml PMA for six hours and then exposed to dose ranges of the compound to be tested followed by the addition of 1 ng/ml LPS.
After 18 hours incubation at 37° C. with 5% CO2 the cell culture supernatants were harvested and stored at −70° C., until required for determination of TNF-α secretion by Dissociation Enhanced Lanthanide Fluorescence Immuno Assay (DELFIA). The effect of the compounds on cell cytotoxicity was measured using the tetrazolium salt, XTT (2,3-bis[2-methoxy-4-nitro-5-sulphophenyl]-2H-tetrazolium-5-carboxanilide salt) and effects on protein synthesis were determined by investigation of [^3H] Leucine uptake.

IC50 (IL-1β) [µM] | IC50 (TNF-α) [µM] | SMILES | inhibition at 0.044 µM (IL-1β; Homo sapiens, concentration 0.044 μM) [%] | inhibition at 0.22 µM (IL-1β; Homo sapiens, concentration 0.22 μM) [%] | inhibition at 1.1 µM (IL-1β; Homo sapiens, concentration 1.1 μM) [%] | inhibition at 5.5 µM (IL-1β; Homo sapiens, concentration 5.5 μM) [%] | inhibition at 0.01 µM (TNF-α; concentration 0.01 μM) [%] | inhibition at 0.04 µM (TNF-α; concentration 0.04 μM) [%] | inhibition at 0.17 µM (TNF-α; concentration 0.17 μM) [%] | inhibition at 0.7 µM (TNF-α; concentration 0.7 μM) [%] | inhibition at 2.8 µM (TNF-α; concentration 2.8 μM) [%] | inhibition at 0.5 µM (IL-1β; Homo sapiens, concentration 0.5 μM) [%] | inhibition at 2 µM (IL-1β; Homo sapiens, concentration 2 μM) [%] | inhibition at 20 µM (IL-1β; Homo sapiens, concentration 20 μM) [%] | inhibition at 0.12 µM (TNF-α; concentration 0.12 μM) [%] | inhibition at 0.5 µM (TNF-α; concentration 0.5 μM) [%] | inhibition at 2 µM (TNF-α; concentration 2 μM) [%] | inhibition at 8 µM (TNF-α; concentration 8 μM) [%]
0.19 | 0.08 | C/C=C/[C@@H]1OC(=O)C=C[C@@H]1C(=O)/C=C/C(C)=C/[C@@H](C)CCCCCC [R in formula (I) is CH3, 3-((5S,6S)-5,6-dihydro-5-((6S)-4,6-dimethyldodeca-2E,4E-dienoyl)-2H-pyran-2-on-6-yl)-prop-2E-ene] | 23 | 41 | 72 | 88 | 0.85 | 20 | 61 | 90 | 99 | – | – | – | – | – | – | –
2 | 2 | CCCCCC[C@H](C)/C=C(C)/C=C/C(=O)[C@H]1C=CC(=O)O[C@H]1/C=C/C(=O)O [R in formula (I) is CO2H, 3-((5S,6S)-5,6-dihydro-5-((6S)-4,6-dimethyldodeca-2E,4E-dienoyl)-2H-pyran-2-on-6-yl)-prop-2E-enoic acid] | – | – | – | – | – | – | – | – | – | 14 | 81.5 | 99 | 47 | 77 | 100 | 107
